According to PubChem BioAssay AID328 (DTP/NCI, 2004):
Several values for one entry are separate records, joined by “and”; a condition that tells them apart may be missing. Equal entries are not always repeated. Toxic doses and inconclusive results are not listed.

System: BDF1 mice, P388 leukemia ip, median survival T/C
Assay: NCI In Vivo Anticancer Drug Screen. Data for tumor model P388 Leukemia (intraperitoneal) in B6D2F1 (BDF1) mice
Settings: endpoint: median survival time, higher = longer survival
Summary of the method: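 T/C = treated-group survival ÷ vehicle-control survival; tumour transplanted into mice before dosing.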

[1] = dose: 25.0 mg/kg/injection, schedule: Q01DX009 (ip), vehicle: saline with Tween-80
[2] = dose: 50.0 mg/kg/injection, schedule: Q01DX009 (ip), vehicle: saline with Tween-80
[3] = dose: 100.0 mg/kg/injection, schedule: Q01DX009 (ip), vehicle: saline with Tween-80
[4] = dose: 200.0 mg/kg/injection, schedule: Q01DX009 (ip), vehicle: saline with Tween-80
[5] = dose: 100.0 mg/kg/injection, schedule: Q04DX003 (ip), vehicle: Klucel (hydroxypropylcellulose) (HPC)
[6] = dose: 200.0 mg/kg/injection, schedule: Q04DX003 (ip), vehicle: Klucel (hydroxypropylcellulose) (HPC)

Compound: CCC(=O)c1ccc(OCC(O)CN2CCC(O)(c3ccccc3)CC2)cc1 (stereo not given)
- T/C [1]: 111 % of control
- T/C (dose: 25.0 mg/kg/injection, schedule: Q04DX003 (ip), vehicle: saline with Tween-80): 109 % of control
- T/C [2]: 103 % of control
- T/C (dose: 50.0 mg/kg/injection, schedule: Q04DX003 (ip), vehicle: saline with Tween-80): 109 % of control
- T/C [3]: 88 % of control
- T/C (dose: 100.0 mg/kg/injection, schedule: Q04DX003 (ip), vehicle: saline with Tween-80): 104 % of control

Compound: Cn1ncc2c(NCCc3ccccc3)ncnc21
- T/C [1]: 100 % of control
- T/C [2]: 100 % of control

Compound: C=C1C(C)C2C(Cc3ccccc3)NC(=O)C23C(OC(C)=O)C=CC(C)(O)C(=O)C(C)C/C=C/C3C1O (stereo not given)
- T/C (dose: 0.62 mg/kg/injection, schedule: Q01DX009 (ip), vehicle: saline with Tween-80): 104 % of control
- T/C (dose: 1.25 mg/kg/injection, schedule: Q01DX009 (ip), vehicle: saline with Tween-80): 110 % of control
- T/C (dose: 1.6 mg/kg/injection, schedule: Q01DX009 (ip), vehicle: saline): 157 % of control
- T/C (dose: 2.5 mg/kg/injection, schedule: Q01DX009 (ip), vehicle: saline): 172 % of control

Compound: Cc1cc(N=NC(N)=S)c2ccccc2c1O
- T/C [3]: 103 % of control
- T/C [4]: 100 % of control

Compound: C[n+]1ccc2ccccc2c1
- T/C (dose: 25.0 mg/kg/injection, schedule: Q01DX009 (ip), vehicle: saline): 100 % of control
- T/C (dose: 50.0 mg/kg/injection, schedule: Q01DX009 (ip), vehicle: saline): 100 % of control
- T/C (dose: 50.0 mg/kg/injection, schedule: Q04DX003 (ip), vehicle: saline): 104 % of control
- T/C (dose: 100.0 mg/kg/injection, schedule: Q01DX009 (ip), vehicle: saline): 104 % of control
- T/C (dose: 100.0 mg/kg/injection, schedule: Q04DX003 (ip), vehicle: saline): 100 % of control

Compound: ClC1CC[N-]CC1.ClC1CC[N-]CC1.[Cl][Pt+2]([Cl])([Cl])[Cl]
- T/C (dose: 12.5 mg/kg/injection, schedule: Q01DX009 (ip), vehicle: Klucel (hydroxypropylcellulose) (HPC)): 182 % of control
- T/C (dose: 25.0 mg/kg/injection, schedule: Q01DX009 (ip), vehicle: Klucel (hydroxypropylcellulose) (HPC)): 221 % of control
- T/C (dose: 50.0 mg/kg/injection, schedule: Q01DX009 (ip), vehicle: Klucel (hydroxypropylcellulose) (HPC)): 115 % of control

Compound: CCCCCCCCCCCCCCOc1ccc(C=O)cc1OC
- T/C (dose: 100.0 mg/kg/injection, schedule: Q01DX001 (ip), vehicle: Klucel (hydroxypropylcellulose) (HPC)): 100 % of control
- T/C (dose: 200.0 mg/kg/injection, schedule: Q01DX001 (ip), vehicle: Klucel (hydroxypropylcellulose) (HPC)): 100 % of control
- T/C (dose: 400.0 mg/kg/injection, schedule: Q01DX001 (ip), vehicle: Klucel (hydroxypropylcellulose) (HPC)): 100 % of control

Compound: CCCCCCCCCCCCc1c(C(OC)OC)[nH]c(=S)[nH]c1=O
- T/C (dose: 100.0 mg/kg/injection, schedule: Q01DX009 (ip), vehicle: Klucel (hydroxypropylcellulose) (HPC)): 107 % of control
- T/C [5]: 104 % of control
- T/C (dose: 200.0 mg/kg/injection, schedule: Q01DX009 (ip), vehicle: Klucel (hydroxypropylcellulose) (HPC)): 88 % of control
- T/C [6]: 100 % of control
- T/C (dose: 400.0 mg/kg/injection, schedule: Q01DX009 (ip), vehicle: Klucel (hydroxypropylcellulose) (HPC)): 96 % of control
- T/C (dose: 400.0 mg/kg/injection, schedule: Q04DX003 (ip), vehicle: Klucel (hydroxypropylcellulose) (HPC)): 100 % of control

Compound: Cc1ccc(/C(CN2CCOCC2)=N\O)cc1
- T/C (dose: 50.0 mg/kg/injection, schedule: Q01DX001 (ip), vehicle: saline sonified): 105 % of control
- T/C (dose: 100.0 mg/kg/injection, schedule: Q01DX001 (ip), vehicle: saline sonified): 105 % of control
- T/C (dose: 200.0 mg/kg/injection, schedule: Q01DX001 (ip), vehicle: saline sonified): 105 % of control

Compound: O=C1CC(c2ccc(O)cc2)CC(=O)C1C(C1CC=CCC1)N(CCCl)CCCl (stereo not given)
- T/C [5]: 109 % of control and 87 % of control
- T/C [6]: 120 % of control

Compound: NOCc1c(F)c(F)c(F)c(F)c1F
- T/C (dose: 50.0 mg/kg/injection, schedule: Q01DX001 (ip), vehicle: saline): 113 % of control
- T/C (dose: 100.0 mg/kg/injection, schedule: Q01DX001 (ip), vehicle: saline): 104 % of control
- T/C (dose: 200.0 mg/kg/injection, schedule: Q01DX001 (ip), vehicle: saline): 95 % of control

Compound: CCCc1cc(CCC)n2nc(N)nc2n1
- T/C [2]: 109 % of control
- T/C [3]: 100 % of control

Compound: N#Cc1ccccc1-n1c(=O)c2cc3c(=O)n(-c4ccccc4C#N)c(=O)c3cc2c1=O
- T/C [4]: 162 % of control

Compound: O=c1c(N=Nc2ccccc2)c(O)n(-c2ccccc2)c(=S)n1-c1ccccc1
- T/C (dose: 25.0 mg/kg/injection, schedule: Q01DX001 (ip), vehicle: saline with Tween-80): 100 % of control
- T/C (dose: 50.0 mg/kg/injection, schedule: Q01DX001 (ip), vehicle: saline with Tween-80): 90 % of control
- T/C (dose: 100.0 mg/kg/injection, schedule: Q01DX001 (ip), vehicle: saline with Tween-80): 95 % of control
